Laboratory results from patent publication US20210393636A1, “TREATMENT OF CNS AND DEVELOPMENTAL DISORDERS USING HIGH DOSE 5-FORMYL-(6S)-TETRAHYDROFOLATE” (priority 2019, published 2021).

Key:
[1] = Total folates in serum 24 h after oral administration of folate forms (Example 2); assay type: in vivo, rats; set-up: Total Folates in Serum (total 5-MTHF D- and L- plus folic acid): unit not given here; settings: for Total Folates in Serum (total 5-MTHF D- and L- plus folic acid): 4 mg/kg oral, 24 h
Experimental: (§1) This study evaluated the difference in folate absorption in non-pregnant rats, pregnant rats, pregnant rats injected with a control antibody, and pregnant rats injected with antibody to the folate receptor alpha. Eight (8) rats were assigned to each group for a total of thirty-two (32) rats. Two rats within each group were administered a single oral dose of PGA, 5-methyl-(6S)-THF, folinic acid or 5-formyl-(6S)-THF as a liquid solution and sacrificed at 24-hours to evaluate folate absorption patterns. The total amount of each form of folate administered to each rat was 4 mg/kg.
Serum was withdrawn immediately before the rat was sacrificed. For extraction of folate from serum, an aliquot of the serum was diluted in 3 volumes of phosphate buffer pH 5.5, placed in a boiling water bath for 10 min, cooled, the protein precipitate separated by centrifugation and the clear supernatant was assayed for folate concentration.

[2] = Tissue distribution of folates 24 h after oral administration of folate forms to rat pups, with and without FR Ab (Example 3); assay type: in vivo; settings: for Folate (mean), Cerebellum / Folate (mean), Cerebrum / Folate (mean), Kidney / Folate (mean), Liver: PND 21 rat pups, 4 mg/kg oral, 24 h
Experimental: To determine tissue distribution of orally administered folate forms in young rat pups and study the effect of folate receptor antibodies on this distribution. PND 21 rat pups weighing about 50 g were administered folate forms orally at a dose of 4 mg/kg. Animals were euthanized after 24 h and tissues collected for analyzing total methylfolate in each tissue to provide a measure of normal distribution.

[3] = Folate absorption in serum after single high-dose oral administration of different folates (Example 1)
Experimental: For this study, 4 mg/kg folate was administered as a single dose to 250-300 g male Wistar rats. […] For each form of folate 4 time points of 30 min, 1 h, 2 h and 4 h were evaluated. For each time point 2 rats were used. The folate form dissolved in 0.5 ml buffered saline was administered orally using a blunt needle attached to a 1 ml syringe. The rats were euthanized by CO2 inhalation.
Blood was drawn cardiac puncture, allowed to clot for 30 min, serum separated, diluted in equal volume of 4% ascorbate pH 7.2 and kept frozen at −20 C. Folate forms in the serum was determined by HPLC and the peaks were quantified by comparing to known standards as described below.
Folate standards (5-MTHF, FA, THF and Formyl-THF) and 13C-labeled stable isotope internal standards (13C5-5-MTHF, 13C5-FA and 13C-Formyl-THF) were obtained from Schircks Laboratories (Switzerland). Formic acid, ascorbic acid and dithiothreitol (DTT) were obtained from Fluka and Optima LC-MS grade methanol from Fisher Scientific. Stock standards for each folate metabolite and internal standards were prepared as 1 mmol/L solutions in water containing 2 mg/mL ascorbic acid and stored at −80° C. Microtiter plates used for were purchased from NUNC.
Liquid chromatography electrospray ionization mass spectrometry (LC-ESI-MS/MS) analysis of plasma 5-MTHF, FA, THF, Formyl-THF was performed on a Sciex 5500QTRAP mass spectrometer (Foster City, Calif., USA) coupled with a Shimadzu ultra-high pressure Nexera chromatograph system (Kyoto, Japan). The MS/MS experiments were performed under positive electrospray ionization (+ESI) with multiple-reaction monitoring (MRM) using a Turbolon Spray electrospray source operating at a voltage of 5.5 kV and desolvation temperature of 500° C. The calibration curve was prepared in water containing 2 mg/mL ascorbic acid over a range of 12.5-400 nmol/L for each folate analyte.
Sample preparation involved combining 50 µl of blank, standard, control or sample with 10μ1 62.5 mM dithiothreitol, 20 mg/ml ascorbic acid and 2.5 μM 13C5-5-MTHF, 13C5-FA, 13C-Formyl-THF in 1.5 mL Eppendorf tubes, mixed by vortex and incubated for 10 minutes at room temperature in the dark. Next, samples were deproteinized with 5 volumes of methanol containing 2 mg/ml of ascorbic acid and vortexed and centrifuged at 14800 rpm for 10 minutes. Supernatant was loaded in a 96-well microtiter plate for analysis. The samples were analyzed following injection of 10 μL of extract on a Synergi Hydro 4μ 150×3 mm with a 4×2 mm SecurityGuard column (Phenomenex, Calif., USA) maintained at 40° C. (Phenomenex) and eluted in a gradient with buffer A (100% water with 0.1% formic acid) and buffer B (100% Methanol with 0.1% formic acid). The flow rate was 0.5 mL/min, with a gradient over a total run time of 6 min: 0.0-2.0 min, 0-100% B; 2.5 min, 100% B; 2.6-6.0 min, 0% B.
Total analytical analysis, including column re-equilibration, was 6 minutes. Eluent flow from the column was diverted to waste at the beginning and end of each run and was only directed to the source for the period from 1.5-3.5 minutes. The LC-MS/MS data was acquired and processed using Analyst 1.5.2 software (Sciex).
Values reported include both D- and L-forms.

[4] = Tissue distribution of folates 24 h after oral administration of folate forms (Example 2); assay type: in vivo, rats; settings: for Total 5-MTHF + PGA in Brain: derived from cortex and cerebellum
Experimental: as §1
Additional analyses were performed in various tissues of the pregnant and non-pregnant rats. For tissues other than serum, each tissue was collected, weighed and stored at −20 C. For the folate assay each tissue was suspended in 3 volumes of phosphate buffer containing 2% ascorbic acid pH 7.4 and homogenized using a polytron probe. An aliquot of this homogenate was diluted 10 fold in PO4 buffer PH 5.5 containing 0.2% ascorbic acid, in a glass tube, sealed and placed in a boiling water bath for 10 min. The tube was cooled to room temperature, precipitate removed by centrifugation and the clear supernatant assayed for folate. Brain concentrations were derived from cortex and cerebellum.

[5] = serum, 4 mg/kg single oral dose, 0.5 hr
[6] = serum, 4 mg/kg single oral dose, 1 hr
[7] = serum, 4 mg/kg single oral dose, 2 hr
[8] = serum, 4 mg/kg single oral dose, 4 hr
[9] = non-pregnant rats, without antibody, 4 mg/kg oral, 24 h
[10] = pregnant rats, + Control IgG, 4 mg/kg oral, 24 h
[11] = pregnant rats, + FRAb, 4 mg/kg oral, 24 h
[12] = pregnant rats, w/o IgG, 4 mg/kg oral, 24 h
[13] = male, Wistar, rat, in vivo, po, 4 mg/kg
[14] = male, Wistar, rat, in vivo, po, 4 mg/kg, 0.5 h
[15] = male, Wistar, rat, in vivo, po, 4 mg/kg, 1 h
[16] = male, Wistar, rat, in vivo, po, 4 mg/kg, 2 h
[17] = male, Wistar, rat, in vivo, po, 4 mg/kg, 4 h

Nc1nc2c(c(=O)[nH]1)N(C=O)[C@@H](CNc1ccc(C(=O)N[C@@H](CCC(=O)O)C(=O)O)cc1)CN2 [5-formyl-(6S)-tetrahydrofolate]
Total Folates in Serum (total 5-MTHF D- and L- plus folic acid) ([1]; Non-pregnant rats): 27.5
concentrations of total folates in serum compared to other folate forms ([1]; especially pregnant rats injected with folate receptor antibody): superior concentrations of total folates
Total Folates in Serum (total 5-MTHF D- and L- plus folic acid) ([1]; pregnant rats, Control Ab + Form): 247.1
Total Folates in Serum (total 5-MTHF D- and L- plus folic acid) ([1]; pregnant rats, FRAb + Form): 228.8
Total Folates in Serum (total 5-MTHF D- and L- plus folic acid) ([1]; pregnant rats, Form Only): 88.9
Folate (mean), Cerebellum ([2]; + FRAb (100 ug IP 24 h prior)): 69.5 ng/mg
Folate (mean), Cerebrum ([2]; + FRAb (100 ug IP 24 h prior)): 13.2 ng/mg
Folate (mean), Kidney ([2]; + FRAb (100 ug IP 24 h prior)): 48.7 ng/mg
Folate (mean), Liver ([2]; + FRAb (100 ug IP 24 h prior)): 133.44 ng/mg
Folate (mean), Cerebellum ([2]; no FRAb): 93.3 ng/mg
Folate (mean), Cerebrum ([2]; no FRAb): 15.3 ng/mg
Folate (mean), Kidney ([2]; no FRAb): 52.1 ng/mg
Folate (mean), Liver ([2]; no FRAb): 80.0 ng/mg
change of folates in the brain on antibody administration ([2]; antibody-treated pups vs pups without antibody): The opposite is observed
folate concentrations in cerebellum and cerebrum compared to 5-methyl-6S-THF ([2]; rat pups with and without the antibody): much higher folate concentrations
serum THF and 5-MTHF compared to folinic acid ([3]; especially at one hour): Much better
THF generation and total uptake compared to 5-methyl-(6S)-THF administration ([3]; serum, 4 mg/kg oral): much greater
5-FoTHF [3, 5]: 68.2 ng/mL
THF [3, 5]: 22.9 ng/mL
Total Uptake [3, 5]: 252.6 ng/mL
5-MTHF ([3]; serum, 4 mg/kg single oral dose, 0.5 hr, D- and L-forms): 161.6 ng/mL
5-FoTHF [3, 6]: 97.3 ng/mL
THF [3, 6]: 35.8 ng/mL
Total Uptake [3, 6]: 375.0 ng/mL
5-MTHF ([3]; serum, 4 mg/kg single oral dose, 1 hr, D- and L-forms): 241.9 ng/mL
5-FoTHF [3, 7]: 19.7 ng/mL
THF [3, 7]: 9.0 ng/mL
Total Uptake [3, 7]: 162.9 ng/mL
5-MTHF ([3]; serum, 4 mg/kg single oral dose, 2 hr, D- and L-forms): 144.1 ng/mL
5-FoTHF [3, 8]: 7.0 ng/mL
THF [3, 8]: 39.1 ng/mL
Total Uptake [3, 8]: 216.1 ng/mL
5-MTHF ([3]; serum, 4 mg/kg single oral dose, 4 hr, D- and L-forms): 173.5 ng/mL
concentrations of folates in ovary, brain and cerebellum compared to 5-methyl-6S-THF ([4]; non-pregnant rats without folate receptor antibody): much better concentrations of folates
Total 5-MTHF + PGA in Cerebellum [4, 9]: 8.2
Total 5-MTHF + PGA in Cortex [4, 9]: 1.5
Total 5-MTHF + PGA in Kidney [4, 9]: 20.4
Total 5-MTHF + PGA in Liver [4, 9]: 93.0
Total 5-MTHF + PGA in Ovary [4, 9]: 9.8
Total 5-MTHF + PGA in Brain [4, 9]: 4.8
folate concentrations in placenta and embryo compared to 5-methyl-6S-THF or folinic acid ([4]; pregnant rats without folate receptor antibody): much better folate concentrations
Total 5-MTHF + PGA in Embryo [4, 10]: 2.8 ng/mg
Total 5-MTHF + PGA in Kidney [4, 10]: 19.8 ng/mg
Total 5-MTHF + PGA in Liver [4, 10]: 38.2 ng/mg
Total 5-MTHF + PGA in Ovary [4, 10]: 7.1 ng/mg
Total 5-MTHF + PGA in Placenta [4, 10]: 3.3 ng/mg
Total 5-MTHF + PGA in Brain [4, 10]: 4.8 ng/mg
Total 5-MTHF + PGA in Embryo [4, 11]: 2.3 ng/mg
Total 5-MTHF + PGA in Kidney [4, 11]: 14.3 ng/mg
Total 5-MTHF + PGA in Liver [4, 11]: 39.1 ng/mg
Total 5-MTHF + PGA in Ovary [4, 11]: 3.2 ng/mg
Total 5-MTHF + PGA in Placenta [4, 11]: 3.0 ng/mg
Total 5-MTHF + PGA in Brain [4, 11]: 3.5 ng/mg
Total 5-MTHF + PGA in Embryo [4, 12]: 7.2 ng/mg
Total 5-MTHF + PGA in Kidney [4, 12]: 20.2 ng/mg
Total 5-MTHF + PGA in Liver [4, 12]: 44.8 ng/mg
Total 5-MTHF + PGA in Ovary [4, 12]: 9.3 ng/mg
Total 5-MTHF + PGA in Placenta [4, 12]: 9.0 ng/mg
Total 5-MTHF + PGA in Brain [4, 12]: 2.0 ng/mg

Nc1nc2ncc(CNc3ccc(C(=O)N[C@@H](CCC(=O)O)C(=O)O)cc3)nc2c(=O)[nH]1 [Folic Acid, pteroylglutamic acid]
concentration at 0.5 h [3, 13]: 42.4 ng/mL
concentration at 1 h [3, 13]: 236 ng/mL
concentration at 2 h [3, 13]: 134 ng/mL
concentration at 4 h [3, 13]: 121 ng/mL
5-MTHF [3, 14]: 72.8 ng/mL
THF [3, 14]: 10.7 ng/mL
Total Uptake [3, 14]: 126.0 ng/mL
5-MTHF [3, 15]: 112.9 ng/mL
THF [3, 15]: 5.9 ng/mL
Total Uptake [3, 15]: 354.3 ng/mL
5-MTHF [3, 16]: 101.4 ng/mL
THF [3, 16]: 7.9 ng/mL
Total Uptake [3, 16]: 243.3 ng/mL
5-MTHF [3, 17]: 109.7 ng/mL
THF [3, 17]: 22.4 ng/mL
Total Uptake [3, 17]: 252.7 ng/mL
